Test results as given in publication PMC3356326 (PLoS ONE, 2012).
Read-outs that look alike come from different tables or passages of the source.

Legend:
U87MG tumor-bearing mice = test: Logan graphical analysis with image-derived input function of 60-min dynamic PET: volumes of distribution; type: in vivo, mouse; settings: mean ± SD, n = 4/group
Experimental: (§1) Dynamic PET data acquisition was performed using an Inveon microPET scanner (Siemens Medical Solutions). With the assistance of the Inveon system's positioning laser, U87MG tumor-bearing mouse was placed with its tumor located at the center of field of view (FOV), where the highest imaging sensitivity can be achieved. […] During the acquisition period, a thermostat-controlled thermal heater maintained the body temperature of mice. PET images were reconstructed with 2 iterations of 3-dimensional ordered-subsets expectation maximum (3D OSEM) with 14 subsets, followed by 18 iterations of maximum a posteriori (MAP) algorithm with a smoothing parameter of 0.1 (frame rates: 10×30 s, 5×60 s, 5×120 s and 10×240 s). No attenuation correction was performed in this study.
(§2) In the dynamic PET image analysis, regions of interest (ROIs) were measured with the Inveon Research Workplace (IRW) 3.0 software. ROI was determined by manually superimposing the ellipsoid volume of interest (VOI) to the target tissue on the last frame of the entire 60-min dynamic image sequence. Then a threshold of 30% maximum was set to screen the voxels with lower values in the entire VOI because of possible tumor heterogeneity and shape irregularity. The time–activity curves were derived by superimposing the same VOI on each time frame of the entire 60-min dynamic image sequence and the value of each time point represents the overall concentration of radioactivity in the tissue. The activity concentrations were determined by the mean pixel intensity within each VOI, which were converted to µCi/ml using a calibration constant. Assuming the tissue density of 1 g/ml, the ROI activity was converted to µCi/g and normalized as percent injected dose per gram (%ID/g). The tissue uptake quantification of static scan at 60 min was determined from the last frame of dynamic images. The arterial blood input function was estimated by drawing a VOI in the region of left ventricle on the reconstructed PET image at the 0.5 min time point (the second frame of dynamic PET image series). The region of muscle contralateral to the tumor was selected as the reference tissue.
Kinetic analysis of regional TACs was performed based on two-tissue (three-compartment) and one-tissue (two-compartment) model (Fig. 2). The three-compartment model consists of unmetabolized radiotracer in arterial blood plasma (Cp), free or non-specific binding tracer in interstitial and intracellular space (Ct), and tracer bound specifically to integrin (Cm). Both Ct and Cm occupy the same physical volume. The ROI(t) represents the sum of radioactivity from all compartments and includes the plasma volume fraction. Similarly, the two-compartment model describes RGD tracer kinetics using muscle as reference tissue and Ctref represents free (non-specific binding) tracer in the reference tissue (muscle) region. Generally speaking, kinetic parameters K1 [ml/g/min], k2 [1/min], k3 [1/min], k4 [1/min] represent the transport or binding rates of plasma perfusion into tissue, clearance from plasma, specific binding and dissociation, respectively.
Based on Logan plot shown in Eq. 1 [28], [33], the ratio between the integral of Cp(t) and the instantaneous value of ROI(t), and the ratio between the integral and the instantaneous value of ROI(t) become linearly related when the exchange between the target tissue and plasma reaches an equilibrium (t>t*). [drawing 1] (1) DV denotes the distribution volume and can be easily calculated from the linear regression. DV is a measure of the capacity of tissue to bind a particular tracer and can be regarded as the sum of specific (VS) and nonspecific distribution (VND). [drawing 2] (2) [drawing 3] (3) Total volume of distribution is defined in equation 4. [drawing 4] (4) K1, k2, k3, and k4 are calculated by linear fitting to 60-min dynamic PET data.

[1] = Static PET image quantification of tissue uptake at 60 min (last frame of dynamic scan); type: in vivo; settings: female, athymic nude, mouse, iv, 3.7 MBq, total radioactivity, tail-vein injection ~3.7 MBq, static PET image at 1 h, mean ± SD, n = 4/group
Experimental: The U87MG human glioblastoma tumor model, which has been documented to express high level of integrin αvβ3 [32], was selected for PET imaging. The U87MG cells obtained from ATCC (Manassas, VA) were cultured in DMEM medium supplemented with 10% fetal bovine serum (FBS), 100 IU/mL penicillin, and 100 µg/mL streptomycin (Invitrogen), and in a humidified atmosphere containing 5% CO2 at 37°C. The xenografted model was established by inoculation of 5×10^6 cells into the left shoulder of each female athymic nude mouse at 5–6 weeks of age (Harlan Laboratories). Tumor growth was monitored by caliper measurements of perpendicular axes of the tumor three times a week after the tumors are palpable. The tumor volume was determined as the formula: V = a×(b^2)/2, where a and b are the length and width of each tumor, respectively, in mm. The U87MG xenografted mice underwent PET imaging when the tumor volume reached about 300 mm^3 (about 3 weeks after inoculation). This study was approved by the NIH Clinical Center Animal Care and Use Committee (ACUC). Moreover, all mice were maintained in a specific pathogen-free facility in accordance with the requirements of the ACUC.
as §1, §2

[2] = kidneys, U87MG tumor-bearing mice, read-out: Tissue uptake, Kidneys
[3] = liver, U87MG tumor-bearing mice, read-out: Tissue uptake, Liver
[4] = muscle, U87MG tumor-bearing mice, read-out: Tissue uptake, Muscle
[5] = tumor (U87MG xenograft), U87MG xenograft, female athymic nude mice, read-out: Tissue uptake, Tumor

Volume of Distribution (VT), Kidneys (U87MG tumor-bearing mice) | Volume of Distribution (VT), Liver (U87MG tumor-bearing mice) | Volume of Distribution (VT), Muscle (U87MG tumor-bearing mice) | Volume of Distribution (VT), Tumor (U87MG tumor-bearing mice) | tissue uptake at 1 h [1, 2] | tissue uptake at 1 h [1, 3] | tissue uptake at 1 h [1, 4] | tissue uptake at 1 h [1, 5] | SMILES
3.37±0.56 | 1.24±0.11 | 0.57±0.064 | 2.07±0.12 |  |  |  |  | N=C(N)NCCC[C@@H]1NC(=O)[C@H](CCCCNC(=O)CC[C@H](NC(=O)COCCOCCOCCNC(=S)Nc2ccc(C[C@H]3CN(CC(=O)O)CCN(CC(=O)O)CCN3CC(=O)O)cc2)C(=O)NCCCC[C@@H]2NC(=O)[C@@H](Cc3ccc(O)cc3)NC(=O)[C@H](CC(=O)O)NC(=O)CNC(=O)[C@H](CCCNC(=N)N)NC2=O)NC(=O)[C@@H](Cc2ccc(O)cc2)NC(=O)[C@H](CC(=O)O)NC(=O)CNC1=O [[^68Ga]Ga-NOTA-PRGD2] [metal not drawn]
 |  |  |  |  |  |  | 2.42 ± 0.56 %ID/g | N=C(N)NCCC[C@@H]1NC(=O)[C@H](CCCCNC(=O)CC[C@H](NC(=O)COCCOCCOCCNC(=S)Nc2ccc(C[C@H]3CN(CC(=O)O)CCN(CC(=O)O)CCN3CC(=O)O)cc2)C(=O)NCCCC[C@@H]2NC(=O)[C@@H](Cc3ccc(O)cc3)NC(=O)[C@H](CC(=O)O)NC(=O)CNC(=O)[C@H](CCCNC(=N)N)NC2=O)NC(=O)[C@@H](Cc2ccc(O)cc2)NC(=O)[C@H](CC(=O)O)NC(=O)CNC1=O [[^68Ga]Ga-NOTA-PRGD2, metal not drawn]

The next lines start with the compound.

SMILES | Volume of Distribution (VT), Kidneys (U87MG tumor-bearing mice) | Volume of Distribution (VT), Liver (U87MG tumor-bearing mice) | Volume of Distribution (VT), Muscle (U87MG tumor-bearing mice) | Volume of Distribution (VT), Tumor (U87MG tumor-bearing mice) | tissue uptake at 1 h [1, 2] | tissue uptake at 1 h [1, 3] | tissue uptake at 1 h [1, 4] | tissue uptake at 1 h [1, 5]
CC(F)C(=O)NCCOCCOCCOCC(=O)N[C@@H](CCC(=O)NCCCC[C@@H]1NC(=O)[C@@H](Cc2ccc(O)cc2)NC(=O)[C@H](CC(=O)O)NC(=O)CNC(=O)[C@H](CCCNC(=N)N)NC1=O)C(=O)NCCCC[C@@H]1NC(=O)[C@@H](Cc2ccc(O)cc2)NC(=O)[C@H](CC(=O)O)NC(=O)CNC(=O)[C@H](CCCNC(=N)N)NC1=O (some centres unmarked) [[^18F]FPPRGD2, reference compound] | 4.10±0.27 | 0.97±0.14 | 0.44±0.071 | 2.35±0.22 | 2.78 ± 0.58 %ID/g | 1.1 ± 0.18 %ID/g | 0.36 ± 0.089 %ID/g | 2.91 ± 0.35 %ID/g
N=C(N)NCCC[C@@H]1NC(=O)[C@H](CCCCNC(=O)CC[C@H](NC(=O)COCCOCCOCCNC(=S)Nc2ccc(C[C@H]3CN(CC(=O)O)CCN(CC(=O)O)CCN3CC(=O)O)cc2)C(=O)NCCCC[C@@H]2NC(=O)[C@@H](Cc3ccc(O)cc3)NC(=O)[C@H](CC(=O)O)NC(=O)CNC(=O)[C@H](CCCNC(=N)N)NC2=O)NC(=O)[C@@H](Cc2ccc(O)cc2)NC(=O)[C@H](CC(=O)O)NC(=O)CNC1=O [[^18F]AlF-NOTA-PRGD2] [listing 1 of 2 here] | 5.24±0.24 | 1.23±0.085 | 0.53±0.086 | 2.65±0.34 |  |  |  | 
N=C(N)NCCC[C@@H]1NC(=O)[C@H](CCCCNC(=O)CC[C@H](NC(=O)COCCOCCOCCNC(=S)Nc2ccc(C[C@H]3CN(CC(=O)O)CCN(CC(=O)O)CCN3CC(=O)O)cc2)C(=O)NCCCC[C@@H]2NC(=O)[C@@H](Cc3ccc(O)cc3)NC(=O)[C@H](CC(=O)O)NC(=O)CNC(=O)[C@H](CCCNC(=N)N)NC2=O)NC(=O)[C@@H](Cc2ccc(O)cc2)NC(=O)[C@H](CC(=O)O)NC(=O)CNC1=O [[^18F]AlF-NOTA-PRGD2] [listing 2 of 2 here] |  |  |  |  | 4.67 ± 1.08 %ID/g | 1.21 ± 0.54 %ID/g | 0.53 ± 0.11 %ID/g | 
